Results on one compound are retold here after article PMC6985936, “2-Amino-2,3-dihydro-1H-indene-5-carboxamide-Based Discoidin Domain Receptor 1 (DDR1) Inhibitors: Design, Synthesis, and in Vivo Antipancreatic Cancer Efficacy” (Journal of Medicinal Chemistry, 2019).

A short description of data set [1]: in vivo. The settings on record: male, Sprague-Dawley, rat, plasma, po, 25 mg/kg.
Procedure: (§1) All animal studies were performed according to the protocols and guidelines of the institutional care and use committee. The 4–6 week old male Sprague-Dawley rats were purchased from the Shanghai Laboratory Animal Research Center (Shanghai, China). All of the procedures related to animal handling, care, and treatment in this article were performed in compliance with Agreement of the Ethics Committee on Laboratory Animal Care and the Guidelines for the Care and Use of Laboratory Animals in Shanghai, China. […] The compound was dissolved in the solution containing 2% DMSO, 4% ethanol, 4% castor oil, and 90% ddH2O. Pharmacokinetic properties of SD rats (male) were determined following intravenous (iv) and oral administration. Animals were randomly distributed into two experimental groups (n = 3). The oral groups were given 25 mg/kg by gastric gavage. The other group was dosed by injection into the tail vein (5 mg/kg). […] Whole blood samples were collected in heparinized tubes. The plasma fraction was immediately separated by centrifugation (8000 rpm, 6 min, 4 °C) and stored at −20 °C until liquid chromatography–mass spectrometry analysis. […] The pharmacokinetics parameters were calculated by analyzing the compound concentration in plasma samples using the pharmacokinetic software DAS.2.0.
The conditions of data set [2]: SD rats.
Procedure: as §1

Where two headings read alike, the source gives them in different places.

The compound `Cc1cn(-c2cc(NC(=O)c3ccc4c(c3)C[C@H](N(C)c3cncnc3)C4)cc(C(F)(F)F)c2)cn1` [7f, (R)-2-(Methyl(pyrimidin-5-yl)amino)-N-(3-(4-methyl-1H-imidazol-1-yl)-5-(trifluoromethyl)phenyl)-2,3-dihydro-1H-indene-5-carboxamide] showed a bioavailability in data set [1] of 89.9%. In data set [2] (iv 5 mg/kg), the T1/2 was 0.9 h and the time of peak concentration (Tmax) is listed as 0.083 h. Further, in data set [2] (po 25 mg/kg), the T1/2 stood at 1.7 h and the time to peak (Tmax) came to 4.0 h. In data set [2] (po 25 mg/kg, 25 mg/kg), the “AUC(0–∞)” value is 80 535 μg/(L h).

What is called bioavailability is dose-corrected exposure relative to a reference, in per cent. By Tmax is commonly meant the time from dosing to the highest level.
